We go through one compound from publication PMC11436024, “E-Cyanoacrylamides and 5-Imino Pyrrolones against Trypanosoma cruzi: Activity and Induced Mechanisms of Cell Death” (Tropical Medicine and Infectious Disease, 2024).

The subject of data set [1] is epimastigote form of T. cruzi. Description: In vitro epimastigote activity assay (alamarBlue). Format: cell-based, Trypanosoma cruzi strain Y. The settings on record: epimastigote form of T. cruzi, 72 h incubation at 26 °C, mean ± standard deviation. The procedure:
This assay is based on the use of alamarBlue. The alamarBlue reagent contains resazurin, which emits blue fluorescence under normal conditions. However, when the parasites are still alive and in contact with cell metabolism, the reagent is reduced to resorufin, which emits pink fluorescence.
In 96-well plates, serial dilutions of each compound were added with parasites at a concentration of 10^6 cells/mL in a final volume of 200 µL. Finally, 10% alamarBlue reagent was added, with 20 µL per well.
After 72 h of incubation at 26 °C, the plate was introduced into the plate reader and the fluorescence (570 nm excitation, 585 nm emission) of each well was determined using the EnSpire Multimode Plate Reader® (PerkinElmer, Thermo Fischer Scientific, Madrid, Spain). Finally, using a non-linear regression analysis in Graphpad Prism 9.0.0. the inhibitory concentration 50 (IC50) was calculated.
Inhibitory and cytotoxic concentrations (IC50, IC90, and CC50) were determined in duplicate on three different days using non-linear regression [Inhibitor] vs. response variable slope (four parameters) using non-linear regression analysis with 95% confidence, using GraphPad Prism 10.1.1 statistical software. The analysis was developed using Tukey’s test, considering significant values of p < 0.05. ANOVA analysis was also performed using GraphPad Prism 10.1.1.
A general note: Alamar Blue is a resazurin reagent that responds to reducing activity.

Data set [2] deals with L3 larvae of Culex pipiens. Description: Larvicidal (in vivo toxicity) assay against mosquito larvae. The procedure: The L3 larvae from Culex pipiens, used in the cytotoxicity assay, were cultured at the Laboratorio de Entomología Médica of the Instituto Universitario de Enfermedades Tropicales y Salud Pública de Canarias in Tenerife, Spain.
For this purpose, 3 mL of sterile water with food for 48 h was added to 24-well plates, following WHO guidelines of necessary nutrients. In each well, one L3 larva of Culex pipiens was added, together with different concentrations of the compounds to be tested (IC90 and two times IC90). In addition, negative controls, without treatment and with the maximum amount of DMSO added in the treatments, and positive controls, benznidazole as the reference treatment and triton, previously reported to be toxic to larvae, were added. All experiments were performed in duplicate and repeated on 3 different days, observing larval viability at different times (1, 3, 12, 24, and 48 h after the start of treatment).

The subject of data set [3] is Trypanosoma cruzi parasites. The data set can be described thus: Induction of cell death mechanisms (ATP, SYTOX Green, JC-1, Hoechst/PI, CellROX). The class given is cell-based. The conditions noted are these: parasites incubated 24 h with the IC90 of the compounds. The procedure:
To observe these events, parasites were incubated for 24 h with the IC90 of the compounds. After that, the plate was centrifuged at 3000 rpm at 4 °C for 10 min to remove the supernatant. The pellet was then resuspended in buffer and the different kits were added following the manufacturer’s instructions. CellTiter-Glo® Luminescent Cell Viability Assay was used to determine the ATP levels of the parasitic cells. This kit contains luciferin upon contact with cell metabolism, oxidises to oxyluciferin and emitting luminescence. The procedure was as follows: after 24 h of incubation and centrifugation, the pellet was resuspended in 25 μL of buffer and mixed with 25 μL of CellTiter-Glo® in the dark, shaking for 2 min. Then, after 15 min of incubation at room temperature, the luminescence was read in the EnSpire Multimode Plate Reader® [20]. In PCD, there is an alteration in the permeability of the plasma membrane, but the cell structure is maintained. The SYTOX™ Green Stain (Thermo Fischer Scientific, Madrid, Spain) only penetrates cells with increased plasma permeability. Once inside the cell, it will bind to the DNA and emit green fluorescence. After incubation and centrifugation, the pellet was resuspended in 50 μL of buffer and the reagent was added at a concentration of 1 μM. […]

For orientation: IC50 means the concentration that inhibits the measured activity by half. A higher IC50 goes with lower potency. With `N=C1C=CC(=O)N1c1ccccc1` [B], the concentration for half-maximal inhibition (IC50) in data set [1] (Trypanosoma cruzi, 72 h) is under 10 µM; in data set [1], 6.91 ± 1.33 µM. Also, the larval viability entry is “Alive” in data set [2] (2IC90 (two times IC90) of compound, 1 h); “Alive” in data set [2] (2IC90 (two times IC90) of compound, 3 h); “Alive” in data set [2] (2IC90 (two times IC90) of compound, 12 h); “Alive” in data set [2] (2IC90 (two times IC90) of compound, 24 h); “Alive” in data set [2] (2IC90 (two times IC90) of compound, 48 h); “Alive” in data set [2] (IC90 of compound, 1 h). The larval viability entry in data set [2] (IC90 of compound, 3 h) is “Alive”; in data set [2] (IC90 of compound, 12 h) it was “Alive”; in data set [2] (IC90 of compound, 24 h), “Alive”; in data set [2] (IC90 of compound, 48 h) it was “Alive”. The “type of cell death produced” value in data set [3] is “late phase of this type of cell death”.
